Read-outs that look alike come from different tables or passages of the source.
What was measured:
RSV strain A2 = assay: RSV antiviral assay (Hep2), EC50-Hep2/B1-384; format: cell-based; conditions: human respiratory syncytial virus, HEp-2, 96 h; Hep2 cells, 4 days, Cell-Titer Glo
SARS-CoV-2-Nluc viruses = assay: microbe, parasite or virus in culture; format: cell-based
in vitro [1] = format: cell-based; conditions: human
Experimental: The cytotoxicity of compounds was determined in A549-hACE2 cells in the following manner. Compounds (200 nL) were spotted onto 384-well Grenier plates prior to seeding 5000 A549-hACE2 cells/well in a volume of 40 μL culture medium. The plates were incubated at 37° C. for 48 hours with 5% CO2. On day 2, 40 μL of CellTiter-Glo (Promega) was added and mixed 5 times.

[2] = test system: SARS-CoV-2 SA/2020 B.1.351; assay: microbe, parasite or virus in culture; format: cell-based; conditions: Severe acute respiratory syndrome coronavirus 2, Vero C1008
SARS-CoV-2 BZ/2021 P.1 = assay: microbe, parasite or virus in culture; format: cell-based; conditions: Severe acute respiratory syndrome coronavirus 2, Vero C1008
SARS-CoV-2 CA/2020 = assay: microbe, parasite or virus in culture; format: cell-based; conditions: Severe acute respiratory syndrome coronavirus 2, Vero C1008
[3] = test system: SARS-CoV-2 2019-nCoV/USA-WA1/2020; format: in vivo
SARS-CoV-2 (WA1) = format: in vivo, AGM
CES1 = biological target: T1, CES1 (Homo sapiens, UniProt P23141); assay: CES1/2 stability, CES1; format: in vitro ADME; conditions: CES1 Supersome preparation; Supersome preparations, CES 1.5 mg/ml, 2 μM substrate, pH 7.4, 37° C.; read-out: CES1 T1/2
T1 construct: purchased
T1 sequence (P23141 18-567): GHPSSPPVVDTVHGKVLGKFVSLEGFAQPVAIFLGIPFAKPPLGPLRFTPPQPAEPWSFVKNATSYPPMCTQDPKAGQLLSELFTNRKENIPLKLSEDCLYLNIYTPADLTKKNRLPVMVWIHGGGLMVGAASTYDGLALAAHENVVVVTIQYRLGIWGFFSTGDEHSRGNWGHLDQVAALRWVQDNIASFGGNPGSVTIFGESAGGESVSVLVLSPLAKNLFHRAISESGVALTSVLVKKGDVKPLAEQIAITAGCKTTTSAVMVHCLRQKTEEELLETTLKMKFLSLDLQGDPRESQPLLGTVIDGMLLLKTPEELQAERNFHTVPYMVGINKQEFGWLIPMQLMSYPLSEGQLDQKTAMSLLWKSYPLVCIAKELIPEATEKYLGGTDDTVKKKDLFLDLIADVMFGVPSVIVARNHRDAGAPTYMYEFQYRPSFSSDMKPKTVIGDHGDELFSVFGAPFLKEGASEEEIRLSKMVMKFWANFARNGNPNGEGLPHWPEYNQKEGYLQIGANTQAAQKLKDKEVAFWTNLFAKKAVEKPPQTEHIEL
Experimental: Test compounds or positive control substrates (oseltamivir for CES1 enzymes or procaine for CES2) were incubated with individual Supersome preparations (final CES concentration 1.5 mg/ml) in 0.1 M potassium phosphate buffer (pH 7.4) at 37° C. Substrates were added to a final concentration of 2 μM to initiate the reaction. The final incubation volume was 250 μL. Aliquots were removed after incubation for 0, 10, 30, 60 and 120 min. The reactions were stopped by the addition of IS/Q. Following protein precipitation and centrifugation, 150 μL of supernatant was diluted with an equal volume of water prior to LC-MS analysis. For procaine 150 μL of supernatant was dried down and reconstituted with 250 μL water. All samples were analyzed by LC-MS and the PAR values were used for quantification.

[4] = in vivo, po
[5] = in vivo, po; remark: listed apart in the source
in vitro [6] = conditions: human, PrestoBlue
[7] = […], Compound 1 10 mg/kg and 3 mg/kg, EIDD-2801/molnupiravir 5 mg/kg

Work on `CC(C)C(=O)OC[C@H]1O[C@@](C#N)(c2ccc3c(N)ncnn23)[C@H](OC(=O)C(C)C)[C@@H]1OC(=O)C(C)C` [Compound 1, (2R,3R,4R,5R)-2-(4-aminopyrrolo[2,1-f][1,2,4]triazin-7-yl)-2-cyano-5-((isobutyryloxy)methyl)tetrahydrofuran-3,4-diyl bis(2-methylpropanoate)] yielded an EC50 (RSV strain A2) of 0.261 µM, an EC50 (SARS-CoV-2-Nluc viruses; Severe acute respiratory syndrome coronavirus 2, 48 h, read-out: SARS-CoV2 EC50) of 2.7 µM and an EC50 (SARS-CoV-2-Nluc viruses; Severe acute respiratory syndrome coronavirus 2, host cells A549-ACE2, read-out: EC50, WA1/2020-nano luciferase) of 0.98 µM. For the same molecule, the CC50 at 48 h (in vitro [1]) was greater than 50 µM, the CC50 (in vitro [1]; host cells A549-ACE2, read-out: CC50, A549-ACE2) was greater than 50 µM and the EC50 [2] was 0.11 µM. For the same molecule, the EC50 (SARS-CoV-2 BZ/2021 P.1) was 0.22 µM, the EC50 (SARS-CoV-2 CA/2020) was 0.21 µM and the “Clinical signs versus vehicle animals” value [3, 7] was “No significant differences in clinical signs”. For the same molecule, the “Virus burden in the turbinates” value [3, 7] was “reduced burden in the turbinates”, the “Shed virus load (nasal lavages) versus vehicle” value ([3]; […], Compound 1 10 mg/kg and 3 mg/kg, EIDD-2801/molnupiravir 5 mg/kg, within 12 hours of treatment onset) was “lower in all treated animals than in the vehicle group” and the “Viral RNA copies in nasal lavages and turbinates versus vehicle” value ([3]; […], Compound 1 10 mg/kg, EIDD-2801/molnupiravir 5 mg/kg) was “statistically significant mean reduction”. For the same molecule, the “Clinical signs (body temperature, weight gain)” value ([3]; in vivo, po, 20 mg/kg) was “only animals of the vehicle group showed elevated body temperature”, the “Shed SARS-CoV-2 load in nasal lavages” value ([3]; in vivo, po, 20 mg/kg) was “transiently detectable in lavages of only one ferret” and the “Viral RNA copy numbers in turbinates, difference between vehicle and treatment groups” value ([3]; in vivo, po, 20 mg/kg) was “three”. The “Virus in nasal turbinates 4 days after infection” value ([3]; in vivo, po, 20 mg/kg) was “undetectable”, the “Infectious SARS-CoV-2 titers versus vehicle” value (SARS-CoV-2 (WA1); AGMs, PO 60 or 120 mg/kg QD, days 2-6) was “trended lower than the vehicle group” and the “Viral RNA loads in lower lung tissue versus vehicle” value (SARS-CoV-2 (WA1); AGMs, PO 60 or 120 mg/kg QD, terminal day 6) was “trended lower”. For the same molecule, the “mean SARS-CoV-2 gRNA in BALF versus vehicle” value (SARS-CoV-2 (WA1); in vivo, po) was “significantly reduced”, the “SARS-CoV-2 gRNA in BALF versus vehicle” value (SARS-CoV-2 (WA1); in vivo, po, 60 mg/kg) was “significantly lower than vehicle animals” and the half-life at 2 μM (CES1) was less than 1 min. For the same molecule, the “Compound 1 concentration transiently observed” value ([4]; ferret, 30 mg/kg) was “^aapproximately 10 nM Compound 1 transiently observed in first two hours”, the “oral bioavailability (in words)” value [4] was “excellent oral bioavailability” and the Cmax ([4]; 30 mg/kg) was 15.8 ± 4.7 µM. For the same molecule, the “anabolism to bioactive Reference Compound B (in words)” value [5] was “efficient anabolism to bioactive Reference Compound B”, the CC50 (in vitro [6]; CC50, DF2 HAE, primary diseased (asthma) HAE donor DF2, 72 hours) was 86 µM and the CC50 (in vitro [6]; CC50, F2 HAE, primary HAE donor F2, 72 hours) was 43.8 µM. The CC50 (in vitro [6]; CC50, F3 HAE, primary HAE donor F3, 72 hours) was 43.8 µM, the CC50 (in vitro [6]; CC50, M2 HAE, primary HAE donor M2, 72 hours) was 39.7 µM and the CC50 (in vitro [6]; CC50, M6 HAE, primary HAE donor M6, 72 hours) was 92.3 µM.

From patent US11926645B2, “Compounds and methods for treatment of viral infections” (priority 2020, dated 2024)
